Data from patent US20250099465A1, “REMIBRUTINIB FOR USE IN THE TREATMENT OF HIDRADENITIS SUPPURATIVA” (NOVARTIS AG, priority 2022, published 2025).
Values joined by “and” are separate entries in the source; they are usually repeats but may differ in a detail not shown here. Equal values may be shown once. Read-outs that look alike come from different tables or passages of the source.

Columns and labels:
B cells = conditions: case study; cited from earlier work
HS explant cultures = conditions: cited from earlier work
[1] = Phase 2b randomized, double-blind, placebo-controlled core study in CSU patients; assay type: in vivo
Method: In a Phase 2b, randomized, double-blind, placebo-controlled trial evaluating the efficacy and safety of LOU064 over 12 weeks in patients inadequately controlled by […], with at least moderately active chronic spontaneous urticaria (CSU), patients received LOU064 10 mg q.d. (once daily), 35 mg q.d., 100 mg q.d., 10 mg b.i.d. (twice daily), 25 mg b.i.d., 100 mg b.i.d., or placebo (1:1:1:1:1:1:1 ratio).
(Table 5) In the long-term exposure of the ES (median 35.14 wks, N=183), the proportion of patients with at least one adverse effect (AE) on remibrutinib treatment (57.4% [n=105]) was similar to the CS (presented through for any remibrutinib dose) (58.1% [n=155]; median 12.14 wks, N=267). In the ES, there were 4 serious adverse effects (SAEs), 6 AEs leading to treatment discontinuation and no deaths. The incidences of AEs by […] (SOC) reported in the ES and CS were similar: infections and infestations (23.0% and 24.0%), followed by skin/subcutaneous tissue disorder (17.5% and 16.9%) (Table 5). […] Incidence of AESI in the ES such as infections (23%), bleeding (4.4%) and cytopenias (0.5%) were in line with the CS. Newly occurring notable transaminase increases were single in both ES (isolated ALT>3×ULN, normalized within 4 weeks, in 1 patient discontinued early for personal reasons) and CS (ALT>5×ULN in 1 patient, normalised on treatment).

BTK [2] = molecular target: T1, BTK (Homo sapiens, UniProt Q06187); conditions: single or multiple doses 0.5 mg to 600 mg up to 18 days; 100 and 200 mg b.i.d. up to 12 days; cited from earlier work
T1 construct: simulate BTK occupancy in human spleen/tissues; from tissue; host or cells: human spleen / lymph node / peripheral tissue B cells (simulated, not measured)

[3] = 52-week open label extension study in CSU subjects (interim analyses); assay type: in vivo;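 further: Open-label extension assessing long-term safety and tolerability in CSU patients previously enrolled in the Phase 2b trial, dosed at 100 mg b.i.d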
Method: In a 52-week open label extension study to evaluate the long-term safety and tolerability of LOU064 in eligible subjects with CSU who participated in the Phase 2b study the dose used was 100 mg b.i.d.
Table 4 presents the safety summary observed in the Phase 2b study up to the cut-off date for the interim analysis.

[4] = Co-administration of LOU064 with oral contraceptives; conditions: in vivo
From the text: Therefore, in a preferred embodiment, LOU064 is co-administered with oral contraceptives.

BTK [5] = molecular target: T1, BTK; test: Phase I clinical study (Kaul et al. 2021): PK, BTK occupancy in blood, short-term safety; assay type: in vivo
From the text: BTK occupancy in blood is not an informative biomarker for the purpose of dose selection due to LOU064 pharmacological properties (irreversible binding). […] Occupancy in tissue may be more representative of the expected efficacy of LOU064.
Pharmacokinetic data from a Phase I clinical study reported by Kaul et al. (2021) were used in the current analysis, including 102 patients.
A population PK model has been developed to describe the interim PK from a Phase I clinical study reported by Kaul et al. (2021). […] Overall the resulting population model described the PK data reasonably well.

[6] = human, in vivo; cited from earlier work
[7] = cited from earlier work
[8] = HS patients; cited from earlier work
[9] = higher dose treatment arms; cited from earlier work
[10] = CS, CSU patients, Any dose, N = 267, listed as remibrutinib
[11] = 100 mg B.I.D., N = 100, interim analysis cut off 31 Aug. 2020
[12] = 100 mg b.i.d., N = 100 interim analysis
[13] = ES, CSU patients, 100 mg b.i.d., N = 183, median 35.14 wks, listed as remibrutinib
[14] = Phase 2b core and extension study

T1 sequence (Q06187 whole entry): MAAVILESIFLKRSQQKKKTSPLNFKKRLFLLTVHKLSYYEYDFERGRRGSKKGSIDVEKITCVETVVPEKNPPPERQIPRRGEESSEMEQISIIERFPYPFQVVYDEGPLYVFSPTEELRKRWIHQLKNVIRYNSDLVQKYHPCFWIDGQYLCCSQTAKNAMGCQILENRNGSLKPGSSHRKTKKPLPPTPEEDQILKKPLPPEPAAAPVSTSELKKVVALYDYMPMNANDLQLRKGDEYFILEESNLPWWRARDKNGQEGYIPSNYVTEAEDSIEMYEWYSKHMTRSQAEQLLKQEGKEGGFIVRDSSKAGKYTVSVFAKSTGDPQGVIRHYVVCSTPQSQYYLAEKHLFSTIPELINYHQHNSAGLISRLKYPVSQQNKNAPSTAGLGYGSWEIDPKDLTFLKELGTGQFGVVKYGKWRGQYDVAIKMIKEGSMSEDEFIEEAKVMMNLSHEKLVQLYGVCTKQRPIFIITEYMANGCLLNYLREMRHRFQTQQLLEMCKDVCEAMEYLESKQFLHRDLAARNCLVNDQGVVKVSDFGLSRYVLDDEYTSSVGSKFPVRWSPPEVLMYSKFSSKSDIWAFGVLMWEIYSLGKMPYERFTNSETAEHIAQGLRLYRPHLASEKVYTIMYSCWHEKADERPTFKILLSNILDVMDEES

In the case of “rituximab: B-cell depletor, CD20 antagonist”, the “outcome of HS treatment using B-cell depletion” value (B cells) is listed as “successful treatment of HS” and the “effect in HS explant cultures” value (HS explant cultures) is listed as “anti-inflammatory effects”.
For `C=CC(=O)N(C)CCOc1c(N)ncnc1-c1cc(F)cc(NC(=O)c2ccc(C3CC3)cc2F)c1C` [LOU064, N-(3-(6-amino-5-(2-(N-methylacrylamido)ethoxy)pyrimidin-4-yl)-5-fluoro-2-methylphenyl)-4-cyclopropyl-2-fluorobenzamide], the “efficacy in CSU compared to the other doses” value ([1]; 25 mg b.i.d. regimen, 12 weeks, CSU inadequately controlled by antihistamines) was “particularly effective”, the “AEs by PT: Headache” value [1, 10] was 9.7% and the “AEs by primary system organ class: Infections and infestations” value [1, 10] was 24.0%. The “AEs by primary system organ class: Skin and subcutaneous tissue disorders” value (“AEs … Skin and subcutaneous tissue disorders” below) [1, 10] was 16.9%, the “Newly occurring notable transaminase increases: ALT>5×ULN, normalised on treatment” value ([1]; CS, any remibrutinib dose) was 1 patient and the Short-term safety (BTK [2]) was “has been shown”. The Death [3, 11] was 0 n (%), the “Discontinued study due to an SAE(s)” value [3, 11] was 0 n (%) and the “Discontinued study due to any AE(s)” value [3, 11] was 0 n (%). The “Non-fatal SAE” value [3, 11] was 3 (3.0) n (%), the “Treatment interruption due to AE(s)” value [3, 11] was 5 (5.0) n (%) and the “Treatment interruption due to SAE(s)” value [3, 11] was 1 (1.0) n (%). The “Patients with AE(s)” value ([3]; 100 mg B.I.D., N = 100, interim analysis cut off 31 Aug. 2020, median exposure 17.86 weeks) was 58 (58) n (%), the safety signal ([3]; 100 mg b.i.d., 100 subjects, median exposure 17.86 weeks) was “No safety signal has been observed” and the “SAEs reported (ovarian cyst, chest pain, appendicitis; none related to study drug)” value [3, 12] was “Three”. The “SOC Infections and infestations” value [3, 12] was 14%, the “SOC Skin and subcutaneous tissue disorders” value [3, 12] was 13% and the “adverse event preferred term: diarrhea” value [3, 12] was 4%. For the same molecule, the “adverse event preferred term: dizziness” value [3, 12] was 3%, the “adverse event preferred term: gastroenteritis” value [3, 12] was 3% and the “adverse event preferred term: headache” value [3, 12] was 6%. For the same molecule, the “bleeding events or events under SOC Blood and lymphatic system disorders” value [3, 12] was “no bleeding events”, the “subjects who experienced at least one treatment emergent AE” value [3, 12] was 58% and the “dose-limiting liver enzyme elevations and other off-target-effects” value ([3]; 100 mg b.i.d., up to 52 weeks) was “does not induce any dose-limiting liver enzyme elevations and other off-target-effects”. The “Incidence of AESI: bleeding” value ([3]; ES, 100 mg b.i.d., N=183) was 4.4%, the “Incidence of AESI: cytopenias” value ([3]; ES, 100 mg b.i.d., N=183) was 0.5% and the “Incidence of AESI: infections” value ([3]; ES, 100 mg b.i.d., N=183) was 23%. The “Newly occurring notable transaminase increases: isolated ALT>3×ULN, normalized within 4 weeks” value ([3]; ES, 100 mg b.i.d., N=183) was 1 patient, the deaths ([3]; ES, 100 mg b.i.d., N=183, median 35.14 wks) was “no deaths” and the “AEs … Skin and subcutaneous tissue disorders” value ([3]; ES, CSU patients, 100 mg b.i.d., N = 183, median 35.14 wks) was 32 n. For the same molecule, the “AEs by PT: Headache” value [3, 13] was 6.6%, the “AEs by primary system organ class: Infections and infestations” value [3, 13] was 23.0% and the “AEs … Skin and subcutaneous tissue disorders” value [3, 13] was 17.5%. For the same molecule, the “Discontinued study treatment due to AE(s)” value [3, 13] was 6 n, the “Patients with SAE(s)” value [3, 13] was 4 n and the “ECG findings or QT of >500 ms” value [3, 14] was “no significant ECG findings or QT of >500 ms noted in any patient”. For the same molecule, the “analysis of laboratory parameters” value [3, 14] was “did not reveal significant safety concerns”, the vital signs [3, 14] was “no clinically meaningful changes” and the “safety profile over longer-term exposure” value ([3]; whole dose range, 100 mg bid up to 52 wks, patients with CSU) was “no new safety signals”. For the same molecule, the “impact on exposure and efficacy of co-administered oral contraceptives (ethinylestradiol or levonorgestrel)” value [4] was “without a major impact on their exposure and efficacy”, the “change in clearance after repeated dosing” value (BTK [5]; doses lower than 50 mg, no difference at higher doses) was “lower clearance at steady state at Day 12 when compared to Day 1” and the “BTK occupancy in blood” value (BTK [5]; low doses) was “reaches full occupancy even at low doses”.
In the case of `CC#CC(=O)N1CCC[C@H]1c1nc(-c2ccc(C(=O)Nc3ccccn3)cc2)c2c(N)nccn12` [Acalabrutinib], the “commonly observed adverse reactions” value [6] is listed as “infection, headache, and diarrhea”.
In the case of `C=CC(=O)N1CCC[C@@H](n2c(=O)n(-c3ccc(Oc4ccccc4)cc3)c3c(N)nccc32)C1` [tolebrutinib], the dose-limiting side effects ([7]; human, in vivo) is given as “dose-limiting diarrhea”.
In the case of `C=CC(=O)N1CCC(CNc2ncnc(N)c2-c2ccc(Oc3ccccc3)cc2)CC1` [evobrutinib], the dose-limiting side effects ([7]; 75 mg b.i.d., Phase II clinical studies) is given as “dose-limiting liver enzyme elevations”.
For adalimumab, the “patients with suboptimal therapeutic responses” value [8] is given as about 40%.
For `C[C@H]1CN(C2COC2)CCN1c1ccc(Nc2cc(-c3ccnc(N4CCn5c(cc6c5CC(C)(C)C6)C4=O)c3CO)cn(C)c2=O)nc1` [fenebrutinib], the “subjects with transient grade 3 elevations of ALT and/or AST” value [9] is listed as 8.3% and 6.3%.
